Data reported in patent publication US20110294794A1, “TREATMENT OF PROTEINOPATHIES USING A FARNESYL TRANSFERASE INHIBITOR” (Link Medicine Corporation, priority 2008, published 2011).
“Also recorded” adds a separate entry of the source.

Legend:
[1] = test system: Aβ; assay: h-APPsl transgenic mouse, Aβ immunoreactivity and extracted Aβ; assay type: in vivo; settings: 0.9 mg/kg once every 24 hr, three months
[2] = Pharmacokinetics of LNK-754-TS in mice, oral administration; assay type: in vivo, mouse; settings: 9 mg/kg, 20% beta-cyclodextrin
From the text: In the experimental data represented in Table 2A, a different method of drug delivery is used (oral) than in the experiment represented in FIG. 3. The best way to compare the relative coverage of the two delivery methods (oral and continuous infusion) is by comparing area-under-the-curve (AUC) values. We can compare the calculated AUC values for the continuous infusion oncology study presented in FIG. 3 and the AUC values associated with the synuclein model doses in the table. […] The AUCs of orally dosed LNK-754-TS at 0.9 mg/kg and at 0.09 mg/kg QD are 34.6 and […], respectively.
The pharmacokinetic profiles of LNK-754-TS and Zarnestra® were analyzed using methods known in the art. The results are shown in FIGS. 13-14 and the tables below.

[3] = test system: 3T3 H-ras (61L) xenograft; settings: BID for 10 days; cited from earlier work
[4] = test system: LC3; assay: Punctate LC3 immunostaining in SH-SY5Y cells; assay type: cell-based, human; settings: 100 nM (FIG. 8b)
Protocol: Cell culture and immunocytochemistry: SH-SY5Y cells were grown in DMEM medium supplemented with 10% FBS and 1% pen/strep at 37° C. and 5% CO2. Cells were differentiated with 10 μM retinoic acid for 48 hr, then treated with the either rapamycin (100 nM or 1 μM) or with 100 nM of either LNK-754-TS or Tipifarnib for 48-72 hr. Cells were then fixed with 4% paraformaldehyde and stained for LC3 (Novus biological, NB100-2331, dilution 1:800) followed by secondary Alexa-564 anti-Rabbit (A-11011).
Autophagy was measured in a neuroblastoma cell culture system by three distinct approaches: quantitation of autophagy-related mRNA's, immunofluorescence microscopy of autophagosomes, and biochemical detection of the microtubule-associated protein 1 light chain 3 (LC3) a key protein that is required for autophagosome formation. Differentiated human neuroblastoma cells (SH-SY5Y) were treated for 72 hr with LNK-754-TS (0.01-100 nM), Zarnestra® (also referred to herein as tipifarnib) (100 nM) or rapamycin (1 μM).

[5] = test system: 3T3 H-ras (61L) xenograft tumor; settings: continuous infusion, cited from earlier work
[6] = test system: LC3-II; assay: LC3-II protein level (autophagic flux) in SH-SY5Y cells with or without bafilomycin A1; assay type: cell-based, human
From the text: Data are represented as mean+/−SEM with statistical significance by paired student's t-test (n=4, p<0.05).
The observed increase in LC3-positive autophagosomes could result, in principle, from either an increased flux through the autophagy pathway or decreased autophagosome degradation (Pankiv, S., et al. J Biol Chem 282, 24131-24145 (2007); Kamada, Y., et al. J Cell Biol 150, 1507-1513 (2000)). […] In order to ascertain an increase in autophagic flux, cells were co-treated with LNK-754-TS and an inhibitor of autophagosome-lysosome fusion, bafilomycin A1 (10 nM). Bafilomycin treatment alone caused a 100% increase in the amount of LC3-II, consistent with the fact that it inhibits autophagosome degradation (FIG. 8c).
The mechanism of autophagy stimulation by LNK-754-TS appears distinct from that of the drug rapamycin. Rapamycin is a well-characterized autophagy stimulator that acts through inhibition of mTOR, a kinase involved in nutrient signaling and regulation of cell growth and survival. […] To further contrast the mechanism of autophagy stimulation by LNK-754-TS to that of rapamycin, a collection of mRNA transcripts of autophagy proteins were measured (FIG. 8d). Selected mRNAs from untreated SH-SY5Y cells were compared to mRNAs from cells treated with LNK-754-TS (100 nM), tipifarnib (100 nM), or rapamycin (1 μM).

[7] = test system: aged non-transgenic rats; assay: Morris water maze in aged non-transgenic rats; assay type: in vivo, rat; settings: aged rats (22 months old), 0.3 mg/kg and 0.9 mg/kg once every 24 hours
From the text: Morris water maze (MWM) analysis of cognitive performance: In APP/PS1 transgenic animals, swimming behavior in a Morris Water Maze was videotaped and analyzed (Ethovision, Noldus, Wageningen, Netherlands). For mice, a place navigation test was used to locate the hidden platform in five blocks of three trials over three consecutive days. Each trial consists of a forced swim test of maximum 120 seconds, followed by 60 seconds of rest. The time each mouse needed for location of the platform was measured. For rats, a cued learning phase was first conducted, consisting of 3 trials per day for 5 days, using a visible platform of varying location. Each trial consisted of a forced swim test of maximum 60 seconds, followed by 10 minutes of rest. The time and path length each rat needed to locate the platform was measured.
In order to rule out the possibility that the rapid observed improvement in cognition described above arose from an alternative, transgene-independent mechanism, aged non-transgenic rats (22 months old) were treated with LNK-754-TS (0.3 mg/kg and 0.9 mg/kg, once every 24 hours) and their cognitive performance was measured by MWM and compared to that of younger rats (3 months old) of the same strain.

[8] = test system: Ras; assay: Soluble/cytoplasmic Ras level in frontal cortex of alpha-synuclein transgenic mice (immunoblot); assay type: in vivo, mouse; settings: 0.09 mg/kg or 9 mg/kg b.i.d., 3 months
Protocol: The level of inhibition of Ras in brain by LNK-754-TS, dosed at an efficacious dose for efficacy in animal models of proteinopathy-dependent neurodegeneration, was investigated. Alpha-synuclein transgenic mice were treated for 3 months b.i.d. with vehicle or LNK-754-TS at 0.09 mg/kg or 9 mg/kg. Cortical tissue was extracted and homogenized, followed by isolation of soluble/cytosolic proteins in detergent-free buffer (50 mM Tris-HCl pH 7.4, 140 mM NaCl, 2 mM EDTA, Protease inhibitor cocktail) by centrifugation. 15 micrograms of protein lysate was analyzed per lane of SDS-PAGE gel, and immunoblotted for Ras and actin (FIG. 6). Densitometry was used to quantify the Ras/actin ratio for each sample, and results were plotted (FIG. 7). […] This contrasts with what is observed in xenograft cancer models, where inhibition of Ras farnesylation by high dose FTIs is directly correlated with efficacy (FIG. 3 and Example 3).

[9] = test system: p62 mRNA; assay: p62 mRNA in SH-SY5Y cells; assay type: cell-based, human; settings: 100 nM (FIG. 8e)
Protocol: Quantitative real-time PCR: Gene expression profiles were done by qPCR on series of known autophagy genes. RNA was extracted with Tri-reagent (Sigma), and cDNAs generated using iScript (Biorad). qPCR analysis was carried out in a 96 well plate using an iCycler (BioRad, Hercules, Calif.), and iQ SYBR Green Supermix (Biorad) according to the manufacturer's specifications.

**Q.** With `C#Cc1cccc(-c2cc(=O)n(C)c3ccc([C@](O)(c4ccc(Cl)cc4)c4cncn4C)cc23)c1` [LNK-754-TS, (R)-6-[(4-chlorophenyl)-hydroxyl-(1-methyl-1-H-imidazol-5-yl)-methyl]-4-(3-ethynylphenyl)-1-methyl-2-(1H)-quinonlinone (2S,3S)-dihydroxybutanedioate] as the compound, how does the “cortical Aβ immunoreactivity and Aβ extracted in the insoluble fractions” value [1] read?
**A.** The value was “did not significantly reduce”.

**Q.** And the Cmax ([2]; BID day 1)?
**A.** The Cmax was 1385 ng/mL.

**Q.** What about the Cmax ([2]; BID day 5) of the same compound?
**A.** Its Cmax is 1485 ng/mL.

**Q.** And the “dose required for suppression of tumor growth” value [3]?
**A.** The value was “at least 25 mg per kg”.

**Q.** And the “punctate LC3 immunostaining (number of LC3-positive puncta)” value [4]?
**A.** The value was “distinct increase; also recorded: increased”.

**Q.** And the “continuous serum level at which significant inhibition of tumor growth was seen” value ([5]; 7 day treatment)?
**A.** Its value is “above 100 ng/mL”.

**Q.** And the “inhibition of Ras farnesylation at which significant inhibition of tumor growth was seen” value ([5]; tumor tissue)?
**A.** The value was ≥ 50%.

**Q.** And the LC3-II protein level ([6]; 100 nM in the presence of Bafilomycin A1 (10 nM))?
**A.** The LC3-II protein level was “increased”.

**Q.** And the “accumulation of LC3-I or LC3-II” value ([6]; treatment alone, without bafilomycin)?
**A.** The value was “did not cause accumulation”.

**Q.** And the “cognitive performance (place learning curves, probe tests)” value [7]?
**A.** The value was “no significant cognitive improvement”.

**Q.** What about the “effect on Ras farnesylation in brain” value [8] of the same compound?
**A.** Its value is “no significant effect”.

**Q.** And the “soluble Ras/actin level in cortex vs. vehicle” value [8]?
**A.** The value was “No significant differences”.

**Q.** What about the “p62 mRNA” value [9] of the same compound?
**A.** Its value is “upregulation; also recorded: increased”.
